Numbers after ± are expanded uncertainties.
Settings: Liquid; for mass density: Vibrating tube method; for speed of sound: Frequency=3 MHz, Pulse-echo method

Structure (SMILES): CCOC(F)(C(F)(F)C(F)(F)C(F)(F)F)C(F)(C(F)(F)F)C(F)(F)F (centres undefined) [2-trifluoromethyl-3-ethoxydodecafluorohexane]
- mass density (333.15 K, 130000 kPa): 1769.7 ± 4.4 kg/m3
- mass density (333.15 K, 140000 kPa): 1779.5 ± 4.7 kg/m3
- speed of sound (343.15 K, 100 kPa): 534.8 ± 1.3 m/s
- mass density (343.15 K, 100 kPa): 1523.6 ± 0.7 kg/m3
- mass density (343.15 K, 10000 kPa): 1559.1 ± 0.8 kg/m3
- speed of sound (343.15 K, 20000 kPa): 667.7 ± 1.5 m/s
- mass density (343.15 K, 20000 kPa): 1587.8 ± 1 kg/m3
- mass density (343.15 K, 30000 kPa): 1611.9 ± 1.2 kg/m3
- speed of sound (343.15 K, 40000 kPa): 765 ± 1.7 m/s
- mass density (343.15 K, 40000 kPa): 1633 ± 1.4 kg/m3
- mass density (343.15 K, 50000 kPa): 1651.7 ± 1.7 kg/m3
- speed of sound (343.15 K, 60000 kPa): 844.9 ± 1.8 m/s
- mass density (343.15 K, 60000 kPa): 1668.7 ± 2 kg/m3
- mass density (343.15 K, 70000 kPa): 1684.2 ± 2.3 kg/m3
- speed of sound (343.15 K, 80000 kPa): 913.5 ± 2 m/s
- mass density (343.15 K, 80000 kPa): 1698.6 ± 2.6 kg/m3
- mass density (343.15 K, 90000 kPa): 1712 ± 2.9 kg/m3
- speed of sound (343.15 K, 100000 kPa): 974 ± 2.1 m/s
- mass density (343.15 K, 100000 kPa): 1724.4 ± 3.3 kg/m3
- mass density (343.15 K, 110000 kPa): 1736.5 ± 3.6 kg/m3
- mass density (343.15 K, 120000 kPa): 1747.8 ± 4 kg/m3
- mass density (343.15 K, 130000 kPa): 1758.4 ± 4.3 kg/m3
- mass density (343.15 K, 140000 kPa): 1768.6 ± 4.7 kg/m3
- speed of sound (353.15 K, 100 kPa): 509 ± 1.3 m/s
- mass density (353.15 K, 100 kPa): 1501.6 ± 0.7 kg/m3
- mass density (353.15 K, 10000 kPa): 1540 ± 0.8 kg/m3
- speed of sound (353.15 K, 20000 kPa): 647.6 ± 1.6 m/s
- mass density (353.15 K, 20000 kPa): 1570.5 ± 1 kg/m3
- mass density (353.15 K, 30000 kPa): 1596 ± 1.2 kg/m3
- speed of sound (353.15 K, 40000 kPa): 747.5 ± 1.7 m/s
- mass density (353.15 K, 40000 kPa): 1618 ± 1.4 kg/m3
- mass density (353.15 K, 50000 kPa): 1637.6 ± 1.7 kg/m3
- speed of sound (353.15 K, 60000 kPa): 828.9 ± 1.8 m/s
- mass density (353.15 K, 60000 kPa): 1655.2 ± 2 kg/m3
- mass density (353.15 K, 70000 kPa): 1671.3 ± 2.3 kg/m3
- speed of sound (353.15 K, 80000 kPa): 898.5 ± 2 m/s
- mass density (353.15 K, 80000 kPa): 1686.2 ± 2.6 kg/m3
- mass density (353.15 K, 90000 kPa): 1700 ± 2.9 kg/m3
- speed of sound (353.15 K, 100000 kPa): 960.3 ± 2.1 m/s
- mass density (353.15 K, 100000 kPa): 1712.9 ± 3.2 kg/m3
- mass density (353.15 K, 110000 kPa): 1724.9 ± 3.6 kg/m3
- mass density (353.15 K, 120000 kPa): 1736.6 ± 3.9 kg/m3
- mass density (353.15 K, 130000 kPa): 1747.4 ± 4.2 kg/m3
- mass density (353.15 K, 140000 kPa): 1757.8 ± 4.6 kg/m3
- mass density (363.15 K, 100 kPa): 1478.1 ± 0.8 kg/m3
- mass density (363.15 K, 10000 kPa): 1520.4 ± 0.8 kg/m3
- mass density (363.15 K, 20000 kPa): 1553 ± 0.9 kg/m3
- mass density (363.15 K, 30000 kPa): 1579.9 ± 1.1 kg/m3
- mass density (363.15 K, 40000 kPa): 1603 ± 1.4 kg/m3
- mass density (363.15 K, 50000 kPa): 1623.4 ± 1.6 kg/m3
- mass density (363.15 K, 60000 kPa): 1641.7 ± 1.9 kg/m3
- mass density (363.15 K, 70000 kPa): 1658.3 ± 2.2 kg/m3
- mass density (363.15 K, 80000 kPa): 1673.6 ± 2.5 kg/m3
- mass density (363.15 K, 90000 kPa): 1687.9 ± 2.8 kg/m3
- mass density (363.15 K, 100000 kPa): 1701.2 ± 3.2 kg/m3
- mass density (363.15 K, 110000 kPa): 1713.7 ± 3.5 kg/m3
- mass density (363.15 K, 120000 kPa): 1725.3 ± 3.8 kg/m3
- mass density (363.15 K, 130000 kPa): 1736.6 ± 4.2 kg/m3
- mass density (363.15 K, 140000 kPa): 1747.3 ± 4.5 kg/m3
- mass density (373.15 K, 100 kPa): 1454.4 ± 0.8 kg/m3
- mass density (373.15 K, 10000 kPa): 1500.9 ± 0.8 kg/m3
- mass density (373.15 K, 20000 kPa): 1535.8 ± 0.9 kg/m3
- mass density (373.15 K, 30000 kPa): 1564.2 ± 1.1 kg/m3
- mass density (373.15 K, 40000 kPa): 1588.4 ± 1.3 kg/m3
- mass density (373.15 K, 50000 kPa): 1609.6 ± 1.6 kg/m3
- mass density (373.15 K, 60000 kPa): 1628.5 ± 1.9 kg/m3
- mass density (373.15 K, 70000 kPa): 1645.8 ± 2.2 kg/m3
- mass density (373.15 K, 80000 kPa): 1661.7 ± 2.5 kg/m3
- mass density (373.15 K, 90000 kPa): 1676.4 ± 2.8 kg/m3
- mass density (373.15 K, 100000 kPa): 1689.9 ± 3.1 kg/m3
- mass density (373.15 K, 110000 kPa): 1702.8 ± 3.4 kg/m3
- mass density (373.15 K, 120000 kPa): 1714.7 ± 3.8 kg/m3
- mass density (373.15 K, 130000 kPa): 1726.2 ± 4.1 kg/m3
- mass density (373.15 K, 140000 kPa): 1737.1 ± 4.5 kg/m3
- mass density (383.15 K, 100 kPa): 1430.4 ± 0.8 kg/m3
- mass density (383.15 K, 10000 kPa): 1481.2 ± 0.8 kg/m3
- mass density (383.15 K, 20000 kPa): 1518.4 ± 0.9 kg/m3
- mass density (383.15 K, 30000 kPa): 1548.4 ± 1.1 kg/m3
- mass density (383.15 K, 40000 kPa): 1573.8 ± 1.3 kg/m3
- mass density (383.15 K, 50000 kPa): 1595.9 ± 1.6 kg/m3
- mass density (383.15 K, 60000 kPa): 1615.5 ± 1.8 kg/m3
- mass density (383.15 K, 70000 kPa): 1633.3 ± 2.1 kg/m3
- mass density (383.15 K, 80000 kPa): 1649.6 ± 2.4 kg/m3
- mass density (383.15 K, 90000 kPa): 1664.6 ± 2.8 kg/m3
- mass density (383.15 K, 100000 kPa): 1678.5 ± 3.1 kg/m3
- mass density (383.15 K, 110000 kPa): 1691.6 ± 3.4 kg/m3
- mass density (383.15 K, 120000 kPa): 1704 ± 3.7 kg/m3
- mass density (383.15 K, 130000 kPa): 1715.7 ± 4.1 kg/m3
- mass density (383.15 K, 140000 kPa): 1726.8 ± 4.4 kg/m3
- mass density (393.15 K, 100 kPa): 1405.6 ± 0.8 kg/m3
- mass density (393.15 K, 10000 kPa): 1461.3 ± 0.9 kg/m3
- mass density (393.15 K, 20000 kPa): 1500.9 ± 0.9 kg/m3
- mass density (393.15 K, 30000 kPa): 1532.5 ± 1.1 kg/m3
- mass density (393.15 K, 40000 kPa): 1559 ± 1.3 kg/m3
- mass density (393.15 K, 50000 kPa): 1581.9 ± 1.5 kg/m3
- mass density (393.15 K, 60000 kPa): 1602.2 ± 1.8 kg/m3
- mass density (393.15 K, 70000 kPa): 1620.6 ± 2.1 kg/m3
- mass density (393.15 K, 80000 kPa): 1637.1 ± 2.4 kg/m3
- mass density (393.15 K, 90000 kPa): 1652.8 ± 2.7 kg/m3
- mass density (393.15 K, 100000 kPa): 1667.1 ± 3 kg/m3
- mass density (393.15 K, 110000 kPa): 1680.5 ± 3.3 kg/m3
- mass density (393.15 K, 120000 kPa): 1693.2 ± 3.7 kg/m3
- mass density (393.15 K, 130000 kPa): 1705.1 ± 4 kg/m3
- mass density (393.15 K, 140000 kPa): 1716.3 ± 4.3 kg/m3

Reference: the NIST ThermoML archive (doi:10.1016/j.jct.2017.04.007)
